Our source for the MIC values is PMC8779355, “In Silico and In Vitro Structure–Activity Relationship of Mastoparan and Its Analogs” (Molecules, 2022).

Broadly, the MIC is the lowest concentration found to suppress growth.

≈ marks a conversion by molar mass, not a printed value. Residues, ends and D or L forms follow the SMILES beside them.

Holding throughout (conditions): nutrient broth, 1 × 10^5 CFU/mL, peptide 0.1 to 50 μg/mL, O.D.600 at 18 h, MIC = growth inhibition greater than 90%, three independent experiments in triplicate
For assay [1], the system named is K. pneumoniae ATCC27736 (DMST4739). It is filed as cell-based, Klebsiella pneumoniae. The procedure:
(§1) The biological activities of MpVT and its analogs were investigated by assaying antimicrobial activities and by studying the hemolysis activity. The minimal inhibitory concentrations (MIC) of the peptides were determined based on methods described by Anunthawan et al.. […] The MpVT4-7 could not detect antibacterial activity when using a peptide concentration lower than 50 μg/mL. The E. coli strains that were the most susceptible against MpVT peptides were selected for visualizing the bacterial morphology when treated with these peptides using a scanning electron microscope. The normal and abnormal morphologies of bacteria cells were visualized after 60 min treatment with the MpVT peptides (Figure 6).
(§2) The microorganisms; Staphylococcus auerus ATCC 27,853 (DMST 4739), Staphylococcus auerus ATCC 25923, Bacillus subtilis ATCC663, Escherichia coli 0157:H7, Escherichia coli DH5α, and Klebsiella pneumoniae ATCC27736 (DMST4739) were used to determine the MIC of MpVT and its analogs. The bacterial strains were inoculated to enter their log phases, and then the suspension was diluted in nutrient broth. The microorganisms were prepared at a final concentration of 1 × 10^5 CFU/mL. The peptides’ concentrations, ranging from 0.1 to 50 μg/mL, were determined. Serial doubling dilutions of various concentrations of MpVTs were made into a nutrient broth to a final volume of 100 μL in each well of a 96-well plate. A% inhibition = 100 − (O.D.600 at 18 h − O.D.600 at immediate treatment × 100/O.D.600 at […] of control − O.D.600 at 18 h of control − O.D.600 at immediate treatment of control). (1)

The next assay concerns S. aureus ATCC25923. Type of assay: cell-based, Staphylococcus auerus. The procedure:
as §1, §2

For a further assay, the system named is E. coli DH5α. Type of assay: cell-based, Escherichia coli. The procedure:
as §1, §2

A further assay concerns E. coli 0157:H7. Type of assay: cell-based, Escherichia coli. The procedure:
as §1, §2

The test system of the next assay is B. subtilis ATCC663. Type of assay: cell-based, Bacillus subtilis. The procedure: as §1, §2
The subject of assay [2] is P. aeruginosa ATCC 27,853 (DMST 4739). It is filed as cell-based. The procedure: as §1, §2

As for `CC[C@H](C)[C@H](N)C(=O)N[C@@H](CC(N)=O)C(=O)N[C@@H](CC(C)C)C(=O)N[C@@H](CCCCN)C(=O)N[C@@H](C)C(=O)N[C@H](C(=O)N[C@@H](C)C(=O)N[C@@H](C)C(=O)N[C@@H](Cc1ccccc1)C(=O)N[C@@H](C)C(=O)N[C@@H](CCCCN)C(=O)N[C@@H](CCCCN)C(=O)N[C@@H](Cc1ccccc1)C(=O)N[C@H](C(=O)O)[C@@H](C)CC)[C@@H](C)CC` [MpVT1] (H-INLKAIAAFAKKFI-OH), the MIC came to 6.25 µg/mL (≈ 4.04 µM) in assay [1]; 12.50 µg/mL (≈ 8.08 µM) with S. aureus ATCC25923; 0.39 µg/mL (≈ 0.252 µM) with E. coli DH5α; 6.25 µg/mL (≈ 4.04 µM) in the assay with E. coli 0157:H7; 3.125 µg/mL (≈ 2.02 µM) in the assay with B. subtilis ATCC663; 6.25 µg/mL (≈ 4.04 µM) in assay [2].
Take `CC[C@H](C)[C@H](N)C(=O)N[C@@H](CC(N)=O)C(=O)N[C@@H](CC(C)C)C(=O)N[C@@H](CCCCN)C(=O)N[C@@H](C)C(=O)N[C@H](C(=O)N[C@@H](C)C(=O)N[C@@H](C)C(=O)N[C@@H](Cc1ccccc1)C(=O)N[C@@H](C)C(=O)N[C@@H](CCCCN)C(=O)N[C@@H](C)C(=O)N[C@@H](CC(C)C)C(=O)N[C@H](C(=O)O)[C@@H](C)CC)[C@@H](C)CC` [MpVT3] (H-INLKAIAAFAKALI-OH): the minimum inhibitory concentration (MIC) was found to be 25.00 µg/mL (≈ 17.2 µM) in assay [1]; 50.00 µg/mL (≈ 34.3 µM) in the assay on S. aureus ATCC25923; 0.78 µg/mL (≈ 0.535 µM) with E. coli DH5α; 50.00 µg/mL (≈ 34.3 µM) against E. coli 0157:H7; 12.50 µg/mL (≈ 8.58 µM) against B. subtilis ATCC663; 6.25 µg/mL (≈ 4.29 µM) in assay [2].
Regarding `CC[C@H](C)[C@H](NC(=O)[C@H](Cc1ccccc1)NC(=O)[C@H](CCCCN)NC(=O)[C@H](CCCCN)NC(=O)[C@H](C)NC(=O)[C@H](Cc1ccccc1)NC(=O)[C@H](C)NC(=O)[C@H](C)NC(=O)[C@@H](NC(=O)[C@H](C)NC(=O)[C@@H](N)CCCCN)[C@@H](C)CC)C(=O)O` [MpVT4] (H-KAIAAFAKKFI-OH), the MIC is above 50.00 µg/mL in assay [1]; above 50.00 µg/mL in the assay on S. aureus ATCC25923; 25.00 µg/mL (≈ 20.7 µM) in the assay on E. coli DH5α; above 50.00 µg/mL in the assay with E. coli 0157:H7; above 50.00 µg/mL in the assay on B. subtilis ATCC663; 25.0 µg/mL (≈ 20.7 µM) in assay [2].
As for `CC[C@H](C)[C@H](NC(=O)[C@H](Cc1ccccc1)NC(=O)[C@H](Cc1ccccc1)NC(=O)[C@H](CCCCN)NC(=O)[C@H](CCCCN)NC(=O)[C@H](C)NC(=O)[C@H](Cc1ccccc1)NC(=O)[C@H](C)NC(=O)[C@H](C)NC(=O)[C@@H](NC(=O)[C@H](C)NC(=O)[C@@H](N)CCCCN)[C@@H](C)CC)C(=O)O` [MpVT5] (H-KAIAAFAKKFFI-OH), the MIC in assay [1] is above 50.00 µg/mL; against S. aureus ATCC25923 it was above 50.00 µg/mL; against E. coli DH5α it was 6.25 µg/mL (≈ 4.61 µM); against E. coli 0157:H7 it was above 50.00 µg/mL; with B. subtilis ATCC663, above 50.00 µg/mL; in assay [2] it was above 50.00 µg/mL.
Take `CC[C@H](C)[C@H](NC(=O)[C@H](Cc1ccccc1)NC(=O)[C@H](CC(C)C)NC(=O)[C@H](C)NC(=O)[C@H](CCCCN)NC(=O)[C@H](C)NC(=O)[C@H](Cc1ccccc1)NC(=O)[C@H](C)NC(=O)[C@H](C)NC(=O)[C@@H](NC(=O)[C@H](C)NC(=O)[C@@H](N)CCCCN)[C@@H](C)CC)C(=O)O` [MpVT6] (H-KAIAAFAKALFI-OH): the MIC is above 50.00 µg/mL in assay [1]; above 50.00 µg/mL against S. aureus ATCC25923; 12.50 µg/mL (≈ 9.89 µM) against E. coli DH5α; above 50.00 µg/mL with E. coli 0157:H7; above 50.00 µg/mL in the assay with B. subtilis ATCC663; above 50.00 µg/mL in assay [2].
For the molecule `CC[C@H](C)[C@H](NC(=O)[C@H](Cc1ccccc1)NC(=O)[C@H](CC(C)C)NC(=O)[C@H](CCCCN)NC(=O)[C@H](C)NC(=O)[C@H](C)NC(=O)[C@H](Cc1ccccc1)NC(=O)[C@H](C)NC(=O)[C@H](C)NC(=O)[C@@H](NC(=O)[C@H](C)NC(=O)[C@@H](N)CCCCN)[C@@H](C)CC)C(=O)O` [MpVT7] (H-KAIAAFAAKLFI-OH), the MIC was above 50.00 µg/mL in assay [1]; above 50.00 µg/mL in the assay with S. aureus ATCC25923; 6.25 µg/mL (≈ 4.95 µM) with E. coli DH5α; above 50.00 µg/mL against E. coli 0157:H7; 50.00 µg/mL (≈ 39.6 µM) against B. subtilis ATCC663; above 50.00 µg/mL in assay [2].
As to `CC[C@H](C)[C@H](N)C(=O)N[C@@H](CC(N)=O)C(=O)N[C@@H](CC(C)C)C(=O)N[C@@H](CCCCN)C(=O)N[C@@H](C)C(=O)N[C@H](C(=O)N[C@@H](C)C(=O)N[C@@H](C)C(=O)N[C@@H](Cc1ccccc1)C(=O)N[C@@H](C)C(=O)N[C@@H](CCCCN)C(=O)N[C@@H](CCCCN)C(=O)N[C@@H](CC(C)C)C(=O)N[C@H](C(=O)O)[C@@H](C)CC)[C@@H](C)CC` [MpVT] (H-INLKAIAAFAKKLI-OH), the MIC in assay [1] came to 25.00 µg/mL (≈ 16.5 µM); in the assay with S. aureus ATCC25923, 50.00 µg/mL (≈ 33 µM); with E. coli DH5α, 3.125 µg/mL (≈ 2.06 µM); in the assay with E. coli 0157:H7 it was 50.00 µg/mL (≈ 33 µM); against B. subtilis ATCC663, 25.00 µg/mL (≈ 16.5 µM); in assay [2], 25.00 µg/mL (≈ 16.5 µM).
